Patent US10000527B2, “11-substituted bile acid derivatives, process for the preparation thereof and use of these compounds as medicaments” (priority 2013, dated 2018)
≈ marks a conversion by molar mass, not a printed value. Like-named read-outs stand apart in the source and are kept apart here.

Experiments:
[1] = system: THP-1 (Human acute monocytic leukemia cell line); assay: Anti-cancer screening, THP-1 cell proliferation; format: cell-based; conditions: for IC50: concentration required to inhibit 50% of the cell proliferation; for IC90: concentration required to inhibit 90% of the cell proliferation, read-out: MIC
[2] = system: HeLa (Human Cervix epithelioid carcinoma cell line); assay: Anti-cancer screening, HeLa cell proliferation; format: cell-based; conditions: for IC50: concentration required to inhibit 50% of the cell proliferation; for IC90: concentration required to inhibit 90% of the cell proliferation, read-out: MIC
[3] = system: Panc-1 (Human pancreas carcinoma cell line); assay: Anti-cancer screening, Panc-1 cell proliferation; format: cell-based; conditions: for IC50: concentration required to inhibit 50% of the cell proliferation; for IC90: concentration required to inhibit 90% of the cell proliferation, read-out: MIC
[4] = system: A549 (Human lung adenocarcinoma epithelial cell line); assay: Anti-cancer screening, A549 cell proliferation; format: cell-based; conditions: for IC50: concentration required to inhibit 50% of the cell proliferation; for IC90: concentration required to inhibit 90% of the cell proliferation, read-out: MIC
[5] = system: M. Tuberculosis H37Ra (DORMANT); assay: Anti TB in vitro, dormant; format: cell-based, Mycobacterium tuberculosis H37Ra; conditions: Mycobacterium tuberculosis
[6] = system: M. Tuberculosis H37Ra (ACTIVE); assay: Anti TB in vitro, active; format: cell-based, Mycobacterium tuberculosis H37Ra; conditions: Mycobacterium tuberculosis
M. Tuberculosis [7] = assay: Anti TB ex vivo infection model, dormant; format: cell-based; conditions: Mycobacterium tuberculosis
M. Tuberculosis [8] = assay: Anti TB ex vivo infection model, active; format: cell-based; conditions: Mycobacterium tuberculosis
[9] = In Vitro, H37Ra DORMANT, read-out: IC 50
[10] = In Vitro, H37Ra DORMANT, read-out: MIC
[11] = In Vitro, H37Ra ACTIVE, read-out: IC 50
[12] = In Vitro, H37Ra ACTIVE, read-out: MIC

Compound	IC50 [1]	IC90 [1]	IC50 [2]	IC90 [2]	IC50 [3]	IC90 [3]	IC50 [4]	IC90 [4]	melting point	IC50 [5, 9]	MIC [5, 10]	IC50 [6, 11]	MIC [6, 12]	IC50 (M. Tuberculosis [7])	MIC (M. Tuberculosis [7])	IC50 (M. Tuberculosis [8])	MIC (M. Tuberculosis [8])	other results
CCOC(=O)N[C@@H]1C(=O)[C@@]2(C)C(CCC2[C@H](C)CCC(=O)OC)C2C1[C@@]1(C)CC[C@@H](OC(C)=O)C[C@H]1C[C@H]2OC(C)=O (stereo partly drawn) [Compound 5, (3R,5S,7R,10S,11S,13R)-11-((ethoxycarbonyl)amino)-17-((R)-5-methoxy-5-oxopentan-2-yl)-10,13-dimethyl-12-oxohexadecahydro-1H-cyclopenta[a]phenanthrene-3,7-diyl diacetate]	> 100 µg/mL	> 100 µg/mL	34.2 µg/mL	> 100 µg/mL	> 100 µg/mL	> 100 µg/mL	> 100 µg/mL	> 100 µg/mL	82 to 85 °C	–	–	–	–	–	–	–	–	–
COC(=O)CC[C@@H](C)C1CCC2C3C([C@H](NC(=O)C4CCCN4C(=O)OC(C)(C)C)C(=O)[C@@]21C)[C@@]1(C)CC[C@@H](OC(C)=O)C[C@H]1C[C@H]3OC(C)=O (stereo partly drawn) [Compound 9, (3R,5S,7R,10S,11S,13R)-11-(1-(tert-butoxycarbonyl)pyrrolidine-2-carboxamido)-17-((R)-5-methoxy-5-oxopentan-2-yl)-10,13-dimethyl-12-oxohexadecahydro-1H-cyclopenta[a]phenanthrene-3,7-diyldiacetate]	46 µg/mL (≈ 64.1 µM)	> 100 µg/mL	18.6 µg/mL (≈ 25.9 µM)	> 100 µg/mL	15 µg/mL (≈ 20.9 µM)	> 100 µg/mL	52 µg/mL (≈ 72.5 µM)	> 100 µg/mL	114 to 118 °C	2.02 µg/mL (≈ 2.82 µM)	8.91 µg/mL (≈ 12.4 µM)	0.92 µg/mL (≈ 1.28 µM)	9.41 µg/mL (≈ 13.1 µM)	3.42 µg/mL (≈ 4.77 µM)	26.3 µg/mL (≈ 36.7 µM)	4.16 µg/mL (≈ 5.8 µM)	26.8 µg/mL (≈ 37.4 µM)	–
CO[C@H]1/C=C/O[C@@]2(C)Oc3c(C)c(O)c4c(O)c(c(/C=N/N5CCN(C)CC5)c(O)c4c3C2=O)NC(=O)/C(C)=C\C=C\[C@H](C)[C@H](O)[C@@H](C)[C@@H](O)[C@@H](C)[C@H](OC(C)=O)[C@@H]1C [RIFAMPICIN, reference compound]	–	–	–	–	–	–	–	–	–	0.0014 µg/mL (≈ 0.0017 µM)	0.043 µg/mL (≈ 0.0523 µM)	0.0018 µg/mL (≈ 0.00219 µM)	0.048 µg/mL (≈ 0.0583 µM)	0.0018 µg/mL (≈ 0.00219 µM)	0.048 µg/mL (≈ 0.0583 µM)	0.0021 µg/mL (≈ 0.00255 µM)	0.051 µg/mL (≈ 0.062 µM)	–
COC(=O)CC[C@@H](C)C1CCC2C3C([C@H](n4cc(-c5ccccc5)nn4)C(=O)[C@@]21C)[C@@]1(C)CC[C@@H](OC(C)=O)C[C@H]1C[C@H]3OC(C)=O (stereo partly drawn) [Compound 1, (3R,5S,7R,10S,11S,13R)-17-((R)-5-methoxy-5-oxopentan-2-yl)-10,13-dimethyl-12-oxo-11-(4-phenyl-1H-1,2,3-triazol-1-yl)hexadecahydro-1H-cyclopenta[a]phenanthrene-3,7-diyl diacetate]	> 100 µg/mL	> 100 µg/mL	7.02 µg/mL	99.1 µg/mL	> 100 µg/mL	> 100 µg/mL	> 100 µg/mL	> 100 µg/mL	–	–	–	–	–	–	–	–	–	–
COC(=O)CC[C@@H](C)C1CCC2C3C([C@H](n4cc(-c5ccccn5)nn4)C(=O)[C@@]21C)[C@@]1(C)CC[C@@H](OC(C)=O)C[C@H]1C[C@H]3OC(C)=O (stereo partly drawn) [Compound 4, (3R,5S,7R,10S,11S,13R)-17-((R)-5-methoxy-5-oxopentan-2-yl)-10,13-dimethyl-12-oxo-11-(4-(pyridin-2-yl)-1H-1,2,3-triazol-1-yl)hexadecahydro-1H-cyclopenta[a]phenanthrene-3,7-diyl diacetate]	> 100 µg/mL	> 100 µg/mL	15.2 µg/mL	85.9 µg/mL	> 100 µg/mL	> 100 µg/mL	> 100 µg/mL	> 100 µg/mL	–	–	–	–	–	–	–	–	–	–
CC(=O)O[C@H]1C(=O)[C@@]2(C)[C@H]([C@H](OC(=O)c3ccccc3)[C@]3(O)C[C@H](OC(=O)[C@H](O)[C@@H](NC(=O)c4ccccc4)c4ccccc4)C(C)=C1C3(C)C)[C@]1(OC(C)=O)CO[C@@H]1C[C@@H]2O [Paclitaxel, reference compound]	0.137 µg/mL (≈ 0.161 µM)	5.81 µg/mL (≈ 6.81 µM)	0.0048 µg/mL (≈ 0.00562 µM)	0.075 µg/mL (≈ 0.0878 µM)	0.128 µg/mL (≈ 0.15 µM)	5.71 µg/mL (≈ 6.69 µM)	0.0035 µg/mL (≈ 0.0041 µM)	0.0706 µg/mL (≈ 0.0827 µM)	–	–	–	–	–	–	–	–	–	–
CCCCCCc1cn([C@@H]2C(=O)[C@@]3(C)C(CCC3[C@H](C)CCC(=O)OC)C3C2[C@@]2(C)CC[C@@H](OC(C)=O)C[C@H]2C[C@H]3OC(C)=O)nn1 (stereo partly drawn) [Compound 2, (3R,5S,7R,10S,11S,13R)-11-(4-hexyl-1H-1,2,3-triazol-1-yl)-17-((R)-5-methoxy-5-oxopentan-2-yl)-10,13-dimethyl-12-oxohexadecahydro-1H-cyclopenta[a]phenanthrene-3,7-diyl diacetate]	> 100 µg/mL	> 100 µg/mL	6.59 µg/mL	> 100 µg/mL	> 100 µg/mL	> 100 µg/mL	> 100 µg/mL	> 100 µg/mL	–	0.17 µg/mL	2.43 µg/mL	0.64 µg/mL	2.63 µg/mL	0.13 µg/mL	1.55 µg/mL	0.25 µg/mL	2.8 µg/mL	–
NNC(=O)c1ccncc1 [ISONIAZID, reference compound]	–	–	–	–	–	–	–	–	–	–	–	–	–	0.0024 µg/mL (≈ 0.0175 µM)	0.0078 µg/mL (≈ 0.0569 µM)	0.0024 µg/mL (≈ 0.0175 µM)	0.075 µg/mL (≈ 0.547 µM)	IC50 ([5]; H37RA): 0.0023 µg/mL (≈ 0.0168 µM); MIC ([5]; H37RA): 0.075 µg/mL (≈ 0.547 µM); IC50 ([6]; H37RA): 0.0019 µg/mL (≈ 0.0139 µM); MIC ([6]; H37RA): 0.074 µg/mL (≈ 0.54 µM)
COC(=O)CC[C@@H](C)C1CCC2C3C([C@H](NC(C)C)C(=O)[C@@]21C)[C@@]1(C)CC[C@@H](OC(C)=O)C[C@H]1C[C@H]3OC(C)=O (stereo partly drawn) [Compound 10, (3R,5S,7R,10S,11S,13R)-11-(isopropylamino)-17-((R)-5-methoxy-5-oxopentan-2-yl)-10,13-dimethyl-12-oxohexadecahydro-1H-cyclopenta[a]phenanthrene-3,7-diyl diacetate]	> 100 µg/mL	> 100 µg/mL	11.6 µg/mL	> 100 µg/mL	> 100 µg/mL	> 100 µg/mL	> 100 µg/mL	> 100 µg/mL	–	–	–	–	–	–	–	–	–	–
COC(=O)CC[C@@H](C)C1CCC2C3C([C@H](n4nnc5ccccc54)C(=O)[C@@]21C)[C@@]1(C)CC[C@@H](OC(C)=O)C[C@H]1C[C@H]3OC(C)=O (stereo partly drawn) [Compound 8, (3R,5S,7R,10S,11S,13R)-11-(1H-benzo[d][1,2,3]triazol-1-yl)-17-((R)-5-methoxy-5-oxopentan-2-yl)-10,13-dimethyl-12-oxohexadecahydro-1H-cyclopenta[a]phenanthrene-3,7-diyl diacetate]	29.9 µg/mL	> 100 µg/mL	20.3 µg/mL	> 100 µg/mL	50 µg/mL	> 100 µg/mL	20 µg/mL	> 100 µg/mL	106 to 109 °C	1.27 µg/mL	7.15 µg/mL	1.08 µg/mL	9.79 µg/mL	1.65 µg/mL	8.16 µg/mL	1.11 µg/mL	8.6 µg/mL	–
COC(=O)CC[C@@H](C)C1CCC2C3C([C@H](NC(=O)C4CCCN4)C(=O)[C@@]21C)[C@@]1(C)CC[C@@H](OC(C)=O)C[C@H]1C[C@H]3OC(C)=O (stereo partly drawn) [Compound 6, (3R,5S,7R,10S,11S,13R)-17-((R)-5-methoxy-5-oxopentan-2-yl)-10,13-dimethyl-12-oxo-11-(pyrrolidine-2-carboxamido)hexadecahydro-1H-cyclopenta[a]phenanthrene-3,7-diyl diacetate]	> 100 µg/mL	> 100 µg/mL	> 100 µg/mL	> 100 µg/mL	> 100 µg/mL	> 100 µg/mL	> 100 µg/mL	> 100 µg/mL	102.6 to 103.8 °C	–	–	–	–	–	–	–	–	–
COC(=O)CC[C@@H](C)C1CCC2C3C([C@H](NC(=O)C(CO)NC(=O)OC(C)(C)C)C(=O)[C@@]21C)[C@@]1(C)CC[C@@H](OC(C)=O)C[C@H]1C[C@H]3OC(C)=O (stereo partly drawn) [Compound 7, (3R,5S,7R,10S,11S,13R)-11-(2-((tert-butoxycarbonyl)amino)-3-hydroxypropanamido)-17-((R)-5-methoxy-5-oxopentan-2-yl)-10,13-dimethyl-12-oxohexadecahydro-1H-cyclopenta[a]phenanthrene-3,7-diyl diacetate]	76.2 µg/mL	> 100 µg/mL	18.2 µg/mL	> 100 µg/mL	> 100 µg/mL	> 100 µg/mL	> 100 µg/mL	> 100 µg/mL	–	0.58 µg/mL	8.6 µg/mL	1.24 µg/mL	9.03 µg/mL	1.32 µg/mL	23.8 µg/mL	1.96 µg/mL	27.3 µg/mL	–
COC(=O)CC[C@@H](C)C1CCC2C3C([C@H](n4cc(-c5ccc(F)cc5)nn4)C(=O)[C@@]21C)[C@@]1(C)CC[C@@H](OC(C)=O)C[C@H]1C[C@H]3OC(C)=O (stereo partly drawn) [Compound 3, (3R,5S,7R,10S,11S,13R)-11-(4-(4-fluorophenyl)-1H-1,2,3-triazol-1-yl)-17-((R)-5-methoxy-5-oxopentan-2-yl)-10,13-dimethyl-12-oxohexadecahydro-1H-cyclopenta[a]phenanthrene-3,7-diyl diacetate]	> 100 µg/mL	> 100 µg/mL	9.76 µg/mL	> 100 µg/mL	> 100 µg/mL	> 100 µg/mL	> 100 µg/mL	> 100 µg/mL	–	–	–	–	–	–	–	–	–	–
